Data taken from patent publication US20230117324A1, “OXAZINE MONOACYLGLYCEROL LIPASE (MAGL) INHIBITORS” (Hoffmann-La Roche Inc., priority 2018, published 2023).

Target: T1, MAGL (recombinant wild-type) (Homo sapiens, UniProt Q99685)
T1 sequence (Q99685 1-303): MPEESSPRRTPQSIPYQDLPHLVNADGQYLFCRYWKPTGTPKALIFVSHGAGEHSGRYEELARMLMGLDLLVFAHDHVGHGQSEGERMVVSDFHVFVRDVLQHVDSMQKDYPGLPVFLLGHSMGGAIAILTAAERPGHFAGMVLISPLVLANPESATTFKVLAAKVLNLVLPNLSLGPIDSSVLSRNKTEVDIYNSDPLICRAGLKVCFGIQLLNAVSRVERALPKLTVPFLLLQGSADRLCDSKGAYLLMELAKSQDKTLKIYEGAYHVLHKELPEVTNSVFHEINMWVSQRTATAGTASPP
Assay: MAGL inhibition, 4-NPA assay (hydrolysis of 4-nitrophenylacetate, absorbance at 405 nm)
Format: biochemical
Conditions: 4-NPA assay (footnote [a]: values not marked [b])
Method: Compounds were profiled for MAGL inhibitory activity by measuring the enzymatic activity of MAGL by following the hydrolysis of 4-nitrophenylacetate resulting in 4-nitrophenol, which absorbs at 405-412 nm (G. G. Muccioli, G. Labar, D. M. Lambert, Chem. Bio. Chem. 2008, 9, 2704-2710). This assay is hereinafter abbreviated “4-NPA assay”.
The assay was carried out in 384 well assay plates (black with clear bottom, non-binding surface treated, Corning Ref. 3655) in a total volume of 40 μL. Compound dilutions were made in 100% DMSO (VWR Chemicals 23500.297) in a polypropylene plate in 3-fold dilution steps to give a final concentration range in the assay from 25 μM to 1.7 nM. 1 μL compound dilutions (100% DMSO) were added to 19 μL MAGL (recombinant wild-type) in assay buffer (50 mM TRIS (GIBCO, 15567-027), 1 mM EDTA (Fluka, 03690-100 mL)). The plate was shaked for 1 min at 2000 rpm (Variomag Teleshake) and then incubated for 15 min at RT. To start the reaction, 20 μL 4-Nitrophenlyacetate (Sigma N-8130) in assay buffer with 6% EtOH was added. The final concentrations in the assay were 1 nM MAGL and 300 μM 4-Nitrophenylacetate. After shaking (1 min, 2000 rpm) and 5 min incubation at RT, the absorbance at 405 nm was measured for a first time (Molecular Devices, SpectraMax Paradigm). A second measurement was then done after incubation for 80 min at RT. From the two measurements, the slope was calculated by subtracting the first from the second measurement.

Compared with `O=C1CO[C@H]2CCN(C(=O)N3CCC(C(c4ccccc4)c4ccccc4)CC3)C[C@H]2N1` (racemic) [Example 1, rac-(4aR,8aS)-6-(4-Benzhydrylpiperidine-1-carbonyl)-4,4a,5,7,8,8a-hexahydropyrido[4,3-b][1,4]oxazin-3-one], `O=C1CO[C@H]2CCN(C(=O)N3CCC(c4cn(CC5CC5)c5ccc(Cl)cc45)CC3)C[C@H]2N1` (racemic) [Example 2, rac-(4aR,8aS)-6-(4-(5-Chloro-1-(cyclopropylmethyl)-1H-indol-3-yl)piperidine-1-carbonyl)hexahydro-2H-pyrido[4,3-b][1,4]oxazin-3(4H)-one] is 1.5-fold lower in IC50: 3 nM for the first, 2 nM for the second. The second is the more potent here.

Target: T2, MAGL (Homo sapiens, UniProt Q99685)
T2 sequence (Q99685 1-303): T1 sequence (Q99685 1-303)
Assay: MAGL inhibition, 2-AG assay (hydrolysis of 2-arachidonoylglycerol, arachidonic acid by mass spectrometry)
Format: biochemical
Conditions: 2-AG assay (footnote [b])
Method in brief: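 Human MAGL […] was preincubated 15 min at RT with compound ([…], 3-fold steps) in 50 mM Tris, 1 mM EDTA, 0.01% Tween. 2-AG (8 μM) was then added for 30 min at RT. Arachidonic acid was quantified by RapidFire SPE–triple quadrupole MS in negative ESI as its ratio to a d8-arachidonic acid standard.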

`NCCOc1cccc(C(c2ccccc2)C2CCN(C(=O)N3CC[C@@H]4OCC(=O)N[C@@H]4C3)CC2)c1` (stereo partly drawn) [Example 252, (4aR,8aS)-6-[4-[[3-(2-Aminoethoxy)phenyl]-phenyl-methyl]piperidine-1-carbonyl]-4,4a,5,7,8,8a-hexahydropyrido[4,3-b][1,4]oxazin-3-one] and `CC(C)(C)OC(=O)NCCOCCC(=O)NCCOc1cccc(C(c2ccccc2)C2CCN(C(=O)N3CC[C@@H]4OCC(=O)N[C@@H]4C3)CC2)c1` (stereo partly drawn) [Example 255, tert-Butyl N-[2-[3-[2-[3-[[1-[(4aR,8aS)-3-oxo-4,4a,5,7,8,8a-hexahydropyrido[4,3-b][1,4]oxazine-6-carbonyl]-4-piperidyl]-phenyl-methyl]phenoxy]ethylamino]-3-oxo-propoxy]ethyl]carbamate] are the same in IC50: 2 nM for the first, 2 nM for the second.

Going from `O=C1CO[C@H]2CCN(C(=O)N3CC(c4nnc(-c5ccc(Cl)cc5Cl)o4)C3)C[C@H]2N1` [Example 253, (4aR,8aS)-6-[3-[5-(2,4-Dichlorophenyl)-1,3,4-oxadiazol-2-yl]azetidine-1-carbonyl]-4,4a,5,7,8,8a-hexahydropyrido[4,3-b][1,4]oxazin-3-one] to `O=C1CO[C@H]2CCN(C(=O)N3CC(c4ccn(-c5ccc(Cl)cc5Cl)n4)C3)C[C@H]2N1` [Example 257, (4aR,8aS)-6-[3-[1-(2,4-Dichlorophenyl)pyrazol-3-yl]azetidine-1-carbonyl]-4,4a,5,7,8,8a-hexahydropyrido[4,3-b][1,4]oxazin-3-one], the IC50 rises from 4 nM to 233 nM (58-fold). The first is the more potent here.

First: O=C1CO[C@H]2CCN(C(=O)N3CC(c4ccc(C(F)(F)F)c(F)c4)C3)C[C@H]2N1 [Example 254]
Second: Cc1ccc(C2CN(C(=O)N3CC[C@@H]4OCC(=O)N[C@@H]4C3)C2)cc1C [Example 259, (4aR,8aS)-6-[3-(3,4-Dimethylphenyl)azetidine-1-carbonyl]-4,4a,5,7,8,8a-hexahydropyrido [4,3-b][1,4]oxazin-3-one]
The IC50 of the first is 2.7-fold higher: 82 nM for the first, 30 nM for the second. The second is the more potent here.

Going from `CC(C)(C)OC(=O)NCCOCCOCCC(=O)NCCOc1cccc(C(c2ccccc2)C2CCN(C(=O)N3CC[C@@H]4OCC(=O)N[C@@H]4C3)CC2)c1` (stereo partly drawn) [Example 256, tert-Butyl N-[2-[2-[3-[2-[3-[[1-[(4aR,8aS)-3-oxo-4,4a,5,7,8,8a-hexahydropyrido[4,3-b][1,4]oxazine-6-carbonyl]-4-piperidyl]-phenyl-methyl]phenoxy]ethylamino]-3-oxo-propoxy]ethoxy]ethyl]carbamate] to `CC(C)(C)COc1ccc(C2CN(C(=O)N3CC[C@@H]4OCC(=O)N[C@@H]4C3)C2)cc1` [Example 278, (4aR,8aS)-6-(3-(4-(Neopentyloxy)phenyl)azetidine-1-carbonyl)hexahydro-2H-pyrido[4,3-b][1,4]oxazin-3(4H)-one], the IC50 falls from 2 nM to 0.1 nM (20-fold). The second is the more potent here.

Going from `CCCOc1ccc(C2CN(C(=O)N3CC[C@@H]4OCC(=O)N[C@@H]4C3)C2)cc1` [Example 258, (4aR,8aS)-6-[3-(4-Propoxyphenyl)azetidine-1-carbonyl]-4,4a,5,7,8,8a-hexahydropyrido[4,3-b][1,4]oxazin-3-one] to `CC(C)(C)Oc1ccc(C2CN(C(=O)N3CC[C@@H]4OCC(=O)N[C@@H]4C3)C2)cc1` [Example 262, (4aR,8aS)-6-[3-(4-tert-Butoxyphenyl)azetidine-1-carbonyl]-4,4a,5,7,8,8a-hexahydropyrido[4,3-b][1,4]oxazin-3-one], the IC50 falls from 5 nM to 1 nM (5-fold). The second is the more potent here.

Compared with `CCNC(=O)c1cc(C)ccc1-c1ccc(C2CN(C(=O)N3CC[C@@H]4OCC(=O)N[C@@H]4C3)C2)cc1` [Example 260, 2-[4-[1-[(4aR,8aS)-3-Oxo-4,4a,5,7,8,8a-hexahydropyrido[4,3-b][1,4]oxazine-6-carbonyl]azetidin-3-yl]phenyl]-N-ethyl-5-methyl-benzamide], `CC(C)(C)Cc1ccc(C2CN(C(=O)N3CC[C@@H]4OCC(=O)N[C@@H]4C3)C2)cc1` [Example 261, (4aR,8aS)-6-[3-[4-(2,2-Dimethylpropyl)phenyl]azetidine-1-carbonyl]-4,4a,5,7,8,8a-hexahydropyrido[4,3-b][1,4]oxazin-3-one] is 43-fold lower in IC50: 3 nM for the first, 0.07 nM for the second.

Compared with `O=C1CO[C@H]2CCN(C(=O)N3CCC(N4CCc5cc(Cl)ccc54)CC3)C[C@H]2N1` [Example 263, (4aR,8aS)-6-[4-(5-Chloroindolin-1-yl)piperidine-1-carbonyl]-4,4a,5,7,8,8a-hexahydropyrido[4,3-b][1,4]oxazin-3-one], `O=C1CO[C@H]2CCN(C(=O)N3CCC(N4CC5(CC5)c5cc(Cl)ccc54)CC3)C[C@H]2N1` [Example 265, (4aR,8aS)-6-[4-(5′-Chlorospiro[cyclopropane-1,3′-indoline]-1′-yl)piperidine-1-carbonyl]-4,4a,5,7,8,8a-hexahydropyrido[4,3-b][1,4]oxazin-3-one] is 3.6-fold higher in IC50: 16 nM for the first, 58 nM for the second.

First: O=C1CO[C@H]2CCN(C(=O)N3CCC(N4Cc5cccc(Cl)c5C4)CC3)C[C@H]2N1 [Example 264, (4aR,8aS)-6-[4-(4-Chloroisoindolin-2-yl)piperidine-1-carbonyl]-4,4a,5,7,8,8a-hexahydropyrido[4,3-b][1,4]oxazin-3-one]
Second: O=C1CO[C@H]2CCN(C(=O)N3CC(N4Cc5cccc(Cl)c5C4)C3)C[C@H]2N1 [Example 266, (4aR,8aS)-6-[3-(4-Chloroisoindolin-2-yl)azetidine-1-carbonyl]-4,4a,5,7,8,8a-hexahydropyrido[4,3-b][1,4]oxazin-3-one]
The IC50 of the first is 3.1-fold lower: 146 nM for the first, 457 nM for the second.

Compared with `O=C1CO[C@H]2CCN(C(=O)N3CCC(c4cn(CCO)c5ccc(Cl)cc45)CC3)C[C@@H]2N1` [Example 269, (4aS,8aS)-6-[4-[5-Chloro-1-(2-hydroxyethyl)indol-3-yl]piperidine-1-carbonyl]-4,4a,5,7,8,8a-hexahydropyrido[4,3-b][1,4]oxazin-3-one], `COc1cc(CC(F)(F)F)ccc1C1CN(C(=O)N2CC[C@@H]3OCC(=O)N[C@@H]3C2)C1` [Example 277, (4aR,8aS)-6-[3-[2-Methoxy-4-(2,2,2-trifluoroethyl)phenyl]azetidine-1-carbonyl]-4,4a,5,7,8,8a-hexahydropyrido[4,3-b][1,4]oxazin-3-one] is 260-fold lower in IC50: 530 nM for the first, 2 nM for the second. The second is the more potent here.

First: O=C1CO[C@H]2CCN(C(=O)N3CC(c4ccc(N5CCC(C(F)(F)F)C5)cn4)C3)C[C@H]2N1 (stereo partly drawn) [Example 270, (4aR,8aS)-6-(3-(5-(3-(Trifluoromethyl)pyrrolidin-1-yl)pyridin-2-yl)azetidine-1-carbonyl)hexahydro-2H-pyrido[4,3-b][1,4]oxazin-3(4H)-one]
Second: O=C1CO[C@H]2CCN(C(=O)N3CC(c4ccc(N5CCC(C(F)(F)F)C5)nc4)C3)C[C@H]2N1 (stereo partly drawn) [Example 273, (4aR,8aS)-6-[3-[6-[3-(Trifluoromethyl)pyrrolidin-1-yl]-3-pyridyl]azetidine-1-carbonyl]-4,4a,5,7,8,8a-hexahydropyrido[4,3-b][1,4]oxazin-3-one]
The IC50 of the first is 13-fold higher: 26 nM for the first, 2 nM for the second.

`O=C1CO[C@H]2CCN(C(=O)N3CC(c4ccc(N5CCC(C(F)(F)F)C5)nc4)C3)C[C@H]2N1` (stereo partly drawn) [Example 275, (4aR,8aS)-6-[3-[6-[3S-or 3R-(trifluoromethyl)pyrrolidin-1-yl]-3-pyridyl]azetidine-1-carbonyl]-4,4a,5,7,8,8a-hexahydropyrido[4,3-b][1,4]oxazin-3-one] and `O=C1CO[C@H]2CCN(C(=O)N3CC(c4ccc(C5CCCOC5)cc4)C3)C[C@H]2N1` (stereo partly drawn) [Example 276, (4aR,8aS)-6-[3-(4-Tetrahydropyran-3-ylphenyl)azetidine-1-carbonyl]-4,4a,5,7,8,8a-hexahydropyrido[4,3-b][1,4]oxazin-3-one] are the same in IC50: 4 nM for the first, 4 nM for the second.
